Laboratory results reported in ChEMBL document CHEMBL4368888, “Design, synthesis and biological evaluation of tryptamine salicylic acid derivatives as potential antitumor agents” (Medchemcomm, 2019).
pIC50: −log10 of the molar value. Calls of active or inactive are those of the source. No cut-off for these calls is given here.

Tests used:
MCF7 = experiment: Antiproliferative activity against human MCF7 cells after 48 hrs by MTT assay; type: functional, cell-based; conditions: MCF7, 48 h
A549 = experiment: Antiproliferative activity against human A549 cells after 48 hrs by MTT assay; type: functional, cell-based; conditions: A549, 48 h
MGC-803 [1] = experiment: Antiproliferative activity against human MGC803 cells after 48 hrs by MTT assay; type: functional, cell-based; conditions: MGC-803, 48 h
HepG2 = experiment: Antiproliferative activity against human HepG2 cells after 48 hrs by MTT assay; type: functional, cell-based; conditions: HepG2, 48 h
HeLa = experiment: Antiproliferative activity against human HeLa cells after 48 hrs by MTT assay; type: functional, cell-based
MGC-803 [2] = experiment: Inhibition of colony formation in human MGC803 cells assessed as reduction in viable cells incubated for 9 days where culture medium was changed every 3 days by crystal violet staining-based assay; type: functional, cell-based
MGC-803 [3] = experiment: Inhibition of colony formation in human MGC803 cells assessed as reduction in viable cells at 40 uM incubated for 9 days where culture medium was changed every 3 days by crystal violet staining-based assay; type: functional
MGC-803 [4] = experiment: Antimigratory activity against human MGC803 cells after 48 hrs by scratch wound-healing assay; type: functional, cell-based
MGC-803 [5] = experiment: Induction of apoptosis in human MGC803 cells assessed as viable cells at 10 uM after 24 hrs by Annexin V-FITC/propidium iodide staining-based flow cytometric analysis (reference value: 94.2%); type: functional; conditions: MGC-803, 24 h, read-out: Activity
MGC-803 [6] = experiment: Induction of apoptosis in human MGC803 cells assessed as early apoptotic cells at 10 uM after 24 hrs by Annexin V-FITC/propidium iodide staining-based flow cytometric analysis (reference value: 1.04%); type: functional
MGC-803 [7] = experiment: Induction of apoptosis in human MGC803 cells assessed as late apoptotic cells at 10 uM after 24 hrs by Annexin V-FITC/propidium iodide staining-based flow cytometric analysis (reference value: 4.17%); type: functional
MGC-803 [8] = experiment: Induction of apoptosis in human MGC803 cells assessed as necrotic cells at 10 uM after 24 hrs by Annexin V-FITC/propidium iodide staining-based flow cytometric analysis (reference value: 0.556%); type: functional
MGC-803 [9] = experiment: Induction of apoptosis in human MGC803 cells assessed as viable cells at 20 uM after 24 hrs by Annexin V-FITC/propidium iodide staining-based flow cytometric analysis (reference value: 94.2%); type: functional; conditions: MGC-803, 24 h, read-out: Activity
MGC-803 [10] = experiment: Induction of apoptosis in human MGC803 cells assessed as early apoptotic cells at 20 uM after 24 hrs by Annexin V-FITC/propidium iodide staining-based flow cytometric analysis (reference value: 1.04%); type: functional
MGC-803 [11] = experiment: Induction of apoptosis in human MGC803 cells assessed as late apoptotic cells at 20 uM after 24 hrs by Annexin V-FITC/propidium iodide staining-based flow cytometric analysis (reference value: 4.17%); type: functional
MGC-803 [12] = experiment: Induction of apoptosis in human MGC803 cells assessed as necrotic cells at 20 uM after 24 hrs by Annexin V-FITC/propidium iodide staining-based flow cytometric analysis (reference value: 0.556%); type: functional
MGC-803 [13] = experiment: Induction of apoptosis in human MGC803 cells assessed as viable cells at 30 uM after 24 hrs by Annexin V-FITC/propidium iodide staining-based flow cytometric analysis (reference value: 94.2%); type: functional; conditions: MGC-803, 24 h, read-out: Activity
MGC-803 [14] = experiment: Induction of apoptosis in human MGC803 cells assessed as early apoptotic cells at 30 uM after 24 hrs by Annexin V-FITC/propidium iodide staining-based flow cytometric analysis (reference value: 1.04%); type: functional
MGC-803 [15] = experiment: Induction of apoptosis in human MGC803 cells assessed as late apoptotic cells at 30 uM after 24 hrs by Annexin V-FITC/propidium iodide staining-based flow cytometric analysis (reference value: 4.17%); type: functional
MGC-803 [16] = experiment: Induction of apoptosis in human MGC803 cells assessed as necrotic cells at 30 uM after 24 hrs by Annexin V-FITC/propidium iodide staining-based flow cytometric analysis (reference value: 0.556%); type: functional
MGC-803 [17] = experiment: Induction of apoptosis in human MGC803 cells after 24 hrs by Annexin V-FITC/propidium iodide staining-based flow cytometric analysis; type: functional, cell-based
MGC-803 [18] = experiment: Cell cycle arrest in human MGC803 cells assessed as accumulation of cells at G0/G1 phase at 20 uM after 24 hrs by propidium iodide staining-based flow cytometric analysis (reference value: 51.37%); type: functional
MGC-803 [19] = experiment: Cell cycle arrest in human MGC803 cells assessed as accumulation of cells at S phase at 20 uM after 24 hrs by propidium iodide staining-based flow cytometric analysis (reference value: 37.1%); type: functional
MGC-803 [20] = experiment: Cell cycle arrest in human MGC803 cells assessed as accumulation of cells at G2/M phase at 20 uM after 24 hrs by propidium iodide staining-based flow cytometric analysis (reference value: 9.86%); type: functional
MGC-803 [21] = experiment: Cell cycle arrest in human MGC803 cells assessed as accumulation of cells at G0/G1 phase at 40 uM after 24 hrs by propidium iodide staining-based flow cytometric analysis (reference value: 51.37%); type: functional
MGC-803 [22] = experiment: Cell cycle arrest in human MGC803 cells assessed as accumulation of cells at S phase at 40 uM after 24 hrs by propidium iodide staining-based flow cytometric analysis (reference value: 37.1%); type: functional
MGC-803 [23] = experiment: Cell cycle arrest in human MGC803 cells assessed as accumulation of cells at G2/M phase at 40 uM after 24 hrs by propidium iodide staining-based flow cytometric analysis (reference value: 9.86%); type: functional
MGC-803 [24] = experiment: Cell cycle arrest in human MGC803 cells assessed as accumulation of cells at G0/G1 phase at 60 uM after 24 hrs by propidium iodide staining-based flow cytometric analysis (reference value: 51.37%); type: functional
MGC-803 [25] = experiment: Cell cycle arrest in human MGC803 cells assessed as accumulation of cells at S phase at 60 uM after 24 hrs by propidium iodide staining-based flow cytometric analysis (reference value: 37.1%); type: functional
MGC-803 [26] = experiment: Cell cycle arrest in human MGC803 cells assessed as accumulation of cells at G2/M phase at 60 uM after 24 hrs by propidium iodide staining-based flow cytometric analysis (reference value: 9.86%); type: functional
MGC-803 [27] = experiment: Cell cycle arrest in human MGC803 cells assessed as accumulation of cells at G2/M phase after 24 hrs by propidium iodide staining-based flow cytometric analysis; type: functional
MGC-803 [28] = experiment: Effect on HIF-1 expression levels in human MGC803 cells at 10 to 40 uM in presence of 100 uM CoCl2 after 24 hrs by Western blot analysis; type: functional, cell-based
MGC-803 [29] = experiment: Effect on PFK expression levels in human MGC803 cells at 10 to 40 uM after 24 hrs by Western blot analysis; type: functional, cell-based
MGC-803 [30] = experiment: Down regulation of HK2 expression levels in human MGC803 cells at 10 to 40 uM after 24 hrs by Western blot analysis; type: functional, cell-based

**Q.** How did the pIC50 (MCF7) turn out when `Cc1cccc(C(=O)NCCc2c[nH]c3ccc(Br)cc23)c1O` was run?
**A.** Its pIC50 is 4.20.

**Q.** And the pIC50 (A549)?
**A.** Its pIC50 is 4.44.

**Q.** And the pIC50 (MGC-803 [1])?
**A.** The pIC50 was 4.54.

**Q.** And the pIC50 (HepG2)?
**A.** The pIC50 was 4.35.

**Q.** What about the pIC50 (HeLa) of the same molecule?
**A.** The pIC50 was 4.28.

**Q.** What about the inhibition (MGC-803 [2]) of the same molecule?
**A.** The inhibition was “Dose-dependent effect”.

**Q.** What about the inhibition at 40 µM (MGC-803 [3]) of the same molecule?
**A.** Its inhibition at 40 µM is 100%.

**Q.** What about the Activity (MGC-803 [4]) of the same molecule?
**A.** The Activity was “Dose-dependent effect”.

**Q.** What about the viability at 10 µM (MGC-803 [5]) of the same molecule?
**A.** Its viability at 10 µM is 91.5%.

**Q.** And the Activity (MGC-803 [6])?
**A.** Its Activity is 1.66%.

**Q.** What about the Activity (MGC-803 [7]) of the same molecule?
**A.** The Activity was 6.56%.

**Q.** And the Activity (MGC-803 [8])?
**A.** Its Activity is 0.25%.

**Q.** And the viability at 20 µM (MGC-803 [9])?
**A.** The viability at 20 µM was 83%.

**Q.** And the Activity (MGC-803 [10])?
**A.** Its Activity is 5.97%.

**Q.** What about the Activity (MGC-803 [11]) of the same molecule?
**A.** The Activity was 9.67%.

**Q.** And the Activity (MGC-803 [12])?
**A.** Its Activity is 1.37%.

**Q.** What about the viability at 30 µM (MGC-803 [13]) of the same molecule?
**A.** The viability at 30 µM was 41.3%.

**Q.** And the Activity (MGC-803 [14])?
**A.** The Activity was 42.7%.

**Q.** What about the Activity (MGC-803 [15]) of the same molecule?
**A.** The Activity was 15.4%.

**Q.** And the Activity (MGC-803 [16])?
**A.** The Activity was 0.587%.

**Q.** What about the Activity (MGC-803 [17]) of the same molecule?
**A.** The Activity was “Dose-dependent effect”.

**Q.** And the Activity (MGC-803 [18])?
**A.** Its Activity is 43%.

**Q.** And the Activity (MGC-803 [19])?
**A.** Its Activity is 21.11%.

**Q.** What about the Activity (MGC-803 [20]) of the same molecule?
**A.** The Activity was 27.01%.

**Q.** What about the Activity (MGC-803 [21]) of the same molecule?
**A.** Its Activity is 49.99%.

**Q.** What about the Activity (MGC-803 [22]) of the same molecule?
**A.** The Activity was 15.58%.

**Q.** And the Activity (MGC-803 [23])?
**A.** Its Activity is 34.65%.

**Q.** What about the Activity (MGC-803 [24]) of the same molecule?
**A.** The Activity was 52.98%.

**Q.** What about the Activity (MGC-803 [25]) of the same molecule?
**A.** Its Activity is 7.56%.

**Q.** And the Activity (MGC-803 [26])?
**A.** Its Activity is 40.78%.

**Q.** And the Activity (MGC-803 [27])?
**A.** Its Activity is “Dose-dependent effect”.

**Q.** What about the Activity (MGC-803 [28]) of the same molecule?
**A.** The Activity was “inactive”.

**Q.** And the Activity (MGC-803 [29])?
**A.** Its Activity is “inactive”.

**Q.** And the Activity (MGC-803 [30])?
**A.** Its Activity is “Active”.
